These results are taken from patent US11731964B2, “Benzamide antibacterial agents” (Purdue Research Foundation, priority 2018, dated 2023).

Values after ≈ are worked out from the molar mass of the structure shown.

Holding throughout (format): cell-based
Assay [1] has as its system S. aureus. In words: Screening of compounds for growth inhibition of S. aureus at 16 μg/mL (OD600). Particulars: compound at 16 μg/mL, 24 hours, compared to DMSO control. The procedure: Library compounds and analogs of F6 were dissolved in DMSO at 10 mg/mL. S. aureus was cultured in Mueller Hinton Broth to early exponential phase at which point culture aliquots were incubated with compounds at 16 μg/mL or DMSO in duplicates. The culture was continued at 37° C. for 24 hours. Aliquots (100 μL) of the cultures were dispensed into clear 96 well microtiter plates and OD600 was recorded. Percent normalized OD600 was obtained by using the equation [formula] wherein for a given compound, X is the OD600 of culture with the compound, Xo is that of media only and XT is the OD600 of the DMSO control.

The test system of another assay is MRSA ATCC 33592. In words: MIC, broth microdilution. Particulars: Staphylococcus aureus; MRSA ATCC 33592; read-out: MIC. The method, then: (§1) Bacteria were cultured in cation-adjusted Mueller Hinton Broth (for strains in Tables 1 and 4) or Brain Heart Infusion broth (for Enterococcus faecium) or Tryptic Soy Broth (all other bacteria) in a 96-well plate at 37° C. for at least 20 hours. The MIC was classified as the lowest concentration where no visual growth of bacteria was observed. The minimum bactericidal concentration (MBC) was tested by spotting 4 μL from wells with no growth onto Tryptic Soy Agar (TSA) plates. Plates were incubated at 37° C. for at least 18 hours before recording the MBC.
(Dilution methods test growth across graded concentrations, often in twofold steps.)

The next assay has as its system VRE. As to the kind of experiment: MIC (Table 5, strain not given). Particulars: Enterococcus; VRE (Table 5). The method, then: as §1
The next assay has as its system E. faecalis. As to the kind of experiment: MIC (Table 5, strain not given). The note with it: Enterococcus faecalis; E. faecalis (Table 5). The procedure: as §1
Assay [2] has as its system S. aureus. As to the kind of experiment: MIC (Table 5, strain not given). The note with it: Staphylococcus aureus; S. aureus (Table 5). The procedure: as §1
A further assay has as its system S. aureus ATCC 25923. In words: MIC, broth microdilution. The note with it: Staphylococcus aureus, ATCC25923; S. aureus ATCC 25923; read-out: MIC. The method, then: as §1

The term MIC denotes the lowest concentration found to suppress growth.

Regarding `CC1CC(C)CN(S(=O)(=O)c2ccc(C(=O)Nc3nnc(C4CCCO4)s3)cc2)C1` (stereo not shown) [Compound F6-2, 4-((3,5-Dimethylpiperidin-1-yl)sulfonyl)-N-(5-(tetrahydrofuran-2-yl)-1,3,4-thiadiazol-2-yl)benzamide], the “inhibition of growth of S. aureus” value in the assay on S. aureus [1] was “inactive”. On the same count and under the same terms, with `CCOC(=O)c1nnc(NC(=O)c2ccc(S(=O)(=O)N3CC(C)CC(C)C3)cc2)o1` (stereo not shown) [Compound F6-3, Ethyl 5-(4-((3,5-dimethylpiperidin-1-yl)sulfonyl)benzamido)-1,3,4-oxadiazole-2-carboxylate] the entry was “inactive”. The same measure, in the same setting: the result for `CC1CC(C)CN(S(=O)(=O)c2ccc(-c3nnc(-c4cccs4)o3)cc2)C1` (stereo not shown) [Compound F6-4, 2-(4-((3,5-Dimethylpiperidin-1-yl)sulfonyl)phenyl)-5-(thiophen-2-yl)-1,3,4-oxadiazole] reads “not active”. Take `CC1CC(C)CN(S(=O)(=O)c2ccc(C(=O)Nc3nnc(-c4cccs4)[nH]3)cc2)C1` (stereo not shown) [Compound F6-6, 4-((3,5-Dimethylpiperidin-1-yl)sulfonyl)-N-(5-(thiophen-2-yl)-4H-1,2,4-triazol-3-yl)benzamide]: the “inhibition of growth of S. aureus” value in the assay on S. aureus [1] is reported as “activity was lost”. Still for that read-out and setting: with `CC1CC(C)CN(S(=O)(=O)c2ccc(C(=O)Nc3nnc(-c4cccs4)s3)cc2)C1` (stereo not shown) [Compound F6-7, 4-((3,5-Dimethylpiperidin-1-yl)sulfonyl)-N-(5-(thiophen-2-yl)-1,3,4-thiadiazol-2-yl)benzamide] the entry was “activity was lost”. Same read-out and setting: the result for `O=C(Nc1nnc(-c2ccco2)o1)c1ccc(S(=O)(=O)N2CCOCC2)cc1` [Compound F9] reads “not active”. In the case of `CN(CC1CCCO1)S(=O)(=O)c1ccc(C(=O)Nc2nnc(-c3ccccc3)o2)cc1` (stereo not shown) [Compound G9], in the assay with S. aureus [1], the “inhibition of growth of S. aureus” value was “only slightly inhibited growth”. In the case of `O=C(Nc1nnc(-c2cccs2)o1)c1ccc(S(=O)(=O)Cc2ccccc2)cc1` [HSGN-104, 4-(benzylsulfonyl)-N-(5-(thiophen-2-yl)-1,3,4-oxadiazol-2-yl)benzamide], the minimal inhibitory concentration (MIC) in the assay with MRSA ATCC 33592 was 32 µg/mL (≈ 75.2 µM); against VRE, greater than 128 µg/mL; against E. faecalis it was 64 µg/mL (≈ 150 µM); with S. aureus [2], 64 µg/mL (≈ 150 µM). As for `C[C@@H]1C[C@H](C)CN(S(=O)(=O)c2ccc(C(=O)Nc3nnc(-c4cccc(Cl)c4)o3)cc2)C1` [HSGN-110, N-(5-(3-chlorophenyl)-1,3,4-oxadiazol-2-yl)-4-(((3S,5R)-3,5-dimethylpiperidin-1-yl)sulfonyl)benzamide], the minimum inhibitory concentration (MIC) was determined as 0.5 µg/mL (≈ 1.05 µM) in the assay on MRSA ATCC 33592, 2 µg/mL (≈ 4.21 µM) against VRE, 1 µg/mL (≈ 2.11 µM) with E. faecalis and 1 µg/mL (≈ 2.11 µM) with S. aureus [2]. With `C[C@@H]1C[C@H](C)CN(S(=O)(=O)c2ccc(C(=O)Nc3nnc(-c4cccc(F)c4)o3)cc2)C1` [HSGN-111, 4-(((3S,5R)-3,5-dimethylpiperidin-1-yl)sulfonyl)-N-(5-(3-fluorophenyl)-1,3,4-oxadiazol-2-yl)benzamide], the minimum inhibitory concentration (MIC) in the assay on MRSA ATCC 33592 stood at 0.5 µg/mL (≈ 1.09 µM); against VRE, 2 µg/mL (≈ 4.36 µM); against E. faecalis it was 2 µg/mL (≈ 4.36 µM); against S. aureus [2], 2 µg/mL (≈ 4.36 µM). On to `C[C@@H]1C[C@H](C)CN(S(=O)(=O)c2ccc(C(=O)Nc3nnc(-c4cccc(C(=N)NO)c4)o3)cc2)C1` [HSGN-151, 4-(((3S,5R)-3,5-dimethylpiperidin-1-yl)sulfonyl)-N-(5-(3-(N-hydroxycarbamimidoyl)phenyl)-1,3,4-oxadiazol-2-yl)benzamide], for which the MIC with MRSA ATCC 33592 and in the assay with S. aureus [2] was greater than 64 µg/mL in each case.

On to `C[C@@H]1C[C@H](C)CN(S(=O)(=O)c2ccc(C(=O)Nc3ccc4[nH]c(=O)oc4c3)cc2)C1` [HSGN-158, 4-(((3S,5R)-3,5-dimethylpiperidin-1-yl)sulfonyl)-N-(2-oxo-2,3-dihydrobenzo[d]oxazol-6-yl)benzamide], for which the MIC in the assay on MRSA ATCC 33592 and with S. aureus [2] was greater than 64 µg/mL each time. In the case of `O=C1CN(S(=O)(=O)c2ccc(C(=O)Nc3nnc(-c4ccc(C(F)(F)F)cc4)o3)cc2)CCN1` [HSGN-162, 4-((3-oxopiperazin-1-yl)sulfonyl)-N-(5-(4-(trifluoromethyl)phenyl)-1,3,4-oxadiazol-2-yl)benzamide], the MIC in the assay with MRSA ATCC 33592 and in the assay with S. aureus [2] was greater than 64 µg/mL in each case. As for `C[C@@H]1C[C@H](C)CN(S(=O)(=O)c2cccc(C(=O)Nc3nnc(-c4ccc(C(F)(F)F)cc4)o3)c2)C1` [HSGN-176, 3-(((3S,5R)-3,5-dimethylpiperidin-1-yl)sulfonyl)-N-(5-(4-(trifluoromethyl)phenyl)-1,3,4-oxadiazol-2-yl)benzamide], the MIC with MRSA ATCC 33592 and in the assay with S. aureus [2] was 8 µg/mL (≈ 15.7 µM) throughout. Regarding `Cc1ccc(C(=O)Nc2nnc(-c3ccc(C(F)(F)F)cc3)o2)cc1S(=O)(=O)N1C[C@H](C)C[C@H](C)C1` [HSGN-177, 3-(((3S,5R)-3,5-dimethylpiperidin-1-yl)sulfonyl)-4-methyl-N-(5-(4-(trifluoromethyl)phenyl)-1,3,4-oxadiazol-2-yl)benzamide], the minimal inhibitory concentration (MIC) in the assay on MRSA ATCC 33592 amounted to 1 µg/mL (≈ 1.91 µM); against S. aureus [2] it was 2 µg/mL (≈ 3.83 µM). Consider `C[C@@H]1C[C@H](C)CN(S(=O)(=O)c2ccc(C(=O)Nc3nnc(-c4ccccc4)o3)cc2)C1` [HSGN-180, 4-(((3S,5R)-3,5-dimethylpiperidin-1-yl)sulfonyl)-N-(5-phenyl-1,3,4-oxadiazol-2-yl)benzamide], for which the minimal inhibitory concentration (MIC) in the assay with MRSA ATCC 33592 and against S. aureus [2] was 4 µg/mL (≈ 9.08 µM) throughout. On to `Cc1ccc(-c2nnc(NC(=O)c3ccc(S(=O)(=O)N4C[C@H](C)C[C@H](C)C4)cc3)o2)cc1` [HSGN-181, 4-(((3S,5R)-3,5-dimethylpiperidin-1-yl)sulfonyl)-N-(5-(p-tolyl)-1,3,4-oxadiazol-2-yl)benzamide], for which the MIC with MRSA ATCC 33592 stood at 8 µg/mL (≈ 17.6 µM); in the assay with S. aureus [2], 16 µg/mL (≈ 35.2 µM). In the same order, the values of `C[C@@H]1C[C@H](C)CN(S(=O)(=O)c2ccc(C(=O)Nc3nnc(-c4ccc(F)cc4F)o3)cc2)C1` [HSGN-182, N-(5-(2,4-difluorophenyl)-1,3,4-oxadiazol-2-yl)-4-(((3S,5R)-3,5-dimethylpiperidin-1-yl)sulfonyl)benzamide] are 8 µg/mL (≈ 16.8 µM) and 8 µg/mL (≈ 16.8 µM). In the same order, the values of `Cc1cc(C(=O)Nc2nnc(-c3ccc(C(F)(F)F)cc3)o2)ccc1S(=O)(=O)N1C[C@H](C)C[C@H](C)C1` [HSGN-189, 4-(((3S,5R)-3,5-dimethylpiperidin-1-yl)sulfonyl)-3-methyl-N-(5-(4-(trifluoromethyl)phenyl)-1,3,4-oxadiazol-2-yl)benzamide] are 0.25 µg/mL (≈ 0.478 µM) and 0.25 µg/mL (≈ 0.478 µM). On the same counts, the results for `CCCCOc1ccc(-c2nnc(NC(=O)c3ccc(S(=O)(=O)N4C[C@H](C)C[C@H](C)C4)cc3)o2)cc1` [HSGN-191, N-(5-(4-butoxyphenyl)-1,3,4-oxadiazol-2-yl)-4-(((3S,5R)-3,5-dimethylpiperidin-1-yl)sulfonyl)benzamide] are 16 µg/mL (≈ 31.2 µM) and 16 µg/mL (≈ 31.2 µM). With `Cc1cc(C(=O)Nc2nnc(-c3ccc(C(F)(F)F)cc3)o2)ccc1S(=O)(=O)N1CCC(C)CC1` [HSGN-195, 3-methyl-4-((4-methylpiperidin-1-yl)sulfonyl)-N-(5-(4-(trifluoromethyl)phenyl)-1,3,4-oxadiazol-2-yl)benzamide], the minimum inhibitory concentration (MIC) in the assay on MRSA ATCC 33592 turned out to be 0.5 µg/mL (≈ 0.983 µM); in the assay on S. aureus [2] it was 1 µg/mL (≈ 1.97 µM). For the compound `COc1cccc(OC)c1C(=O)N[C@@H]1C(=O)N2[C@@H]1SC(C)(C)[C@@H]2C(=O)O` [Methicillin, reference compound], the MIC in the assay with MRSA ATCC 33592 was greater than 128 µg/mL; with S. aureus ATCC 25923, 2 µg/mL (≈ 5.26 µM).
